From the NIST ThermoML archive (doi:10.1021/je400709f)
± gives the expanded uncertainty stated by the source.

Test: excess molar enthalpy (molar enthalpy of mixing); xn = mol fraction of the nth substance listed
Conditions: 298.15 K, 101 kPa, Liquid, Calvet calorimetry

CCCCCCCC[n+]1ccn(C)c1.F[B-](F)(F)F [1-methyl-3-octylimidazolium tetrafluoroborate] + CC(C)O
Conditions	excess molar enthalpy [kcal/mol]
x1 = 0.139	0.337 ± 0.00813
x1 = 0.142	0.342 ± 0.00813
x1 = 0.144	0.348 ± 0.00837
x1 = 0.148	0.354 ± 0.00837
x1 = 0.151	0.36 ± 0.00884
x1 = 0.154	0.366 ± 0.0086
x1 = 0.158	0.373 ± 0.0086
x1 = 0.162	0.379 ± 0.00884
x1 = 0.165	0.386 ± 0.00884
x1 = 0.17	0.392 ± 0.00884
x1 = 0.173	0.397 ± 0.00908
x1 = 0.176	0.402 ± 0.00908
x1 = 0.179	0.406 ± 0.00908
x1 = 0.183	0.412 ± 0.00932
x1 = 0.186	0.417 ± 0.00932
x1 = 0.19	0.422 ± 0.00932
x1 = 0.194	0.428 ± 0.00956
x1 = 0.198	0.433 ± 0.0098
x1 = 0.202	0.439 ± 0.0098
x1 = 0.207	0.445 ± 0.0098
x1 = 0.212	0.452 ± 0.01
x1 = 0.216	0.459 ± 0.0103
x1 = 0.221	0.467 ± 0.0103
x1 = 0.227	0.475 ± 0.0105
x1 = 0.232	0.484 ± 0.0108
x1 = 0.238	0.493 ± 0.011
x1 = 0.244	0.502 ± 0.011
x1 = 0.251	0.511 ± 0.0115
x1 = 0.258	0.528 ± 0.012
x1 = 0.265	0.54 ± 0.012
x1 = 0.273	0.552 ± 0.0122
x1 = 0.281	0.565 ± 0.0124
x1 = 0.29	0.578 ± 0.0127
x1 = 0.295	0.587 ± 0.0129
x1 = 0.301	0.597 ± 0.0131
x1 = 0.307	0.606 ± 0.0131
x1 = 0.314	0.614 ± 0.0134
x1 = 0.32	0.624 ± 0.0136
x1 = 0.327	0.633 ± 0.0136
x1 = 0.335	0.641 ± 0.0139
x1 = 0.342	0.65 ± 0.0141
x1 = 0.35	0.658 ± 0.0141
x1 = 0.359	0.665 ± 0.0143
x1 = 0.367	0.672 ± 0.0143
x1 = 0.377	0.677 ± 0.0143
x1 = 0.386	0.681 ± 0.0146
x1 = 0.396	0.683 ± 0.0146
x1 = 0.407	0.684 ± 0.0146
x1 = 0.418	0.683 ± 0.0146
x1 = 0.43	0.682 ± 0.0146
x1 = 0.443	0.68 ± 0.0146
x1 = 0.456	0.677 ± 0.0143
x1 = 0.471	0.672 ± 0.0143
x1 = 0.486	0.666 ± 0.0141
x1 = 0.502	0.659 ± 0.0141
x1 = 0.519	0.65 ± 0.0139
x1 = 0.538	0.638 ± 0.0136
x1 = 0.558	0.625 ± 0.0134
x1 = 0.566	0.619 ± 0.0134
x1 = 0.575	0.612 ± 0.0131
x1 = 0.584	0.604 ± 0.0129
x1 = 0.593	0.596 ± 0.0129
x1 = 0.602	0.587 ± 0.0127
x1 = 0.612	0.578 ± 0.0124
x1 = 0.622	0.567 ± 0.0122
x1 = 0.632	0.557 ± 0.012
x1 = 0.643	0.545 ± 0.0117
x1 = 0.654	0.533 ± 0.0115
x1 = 0.666	0.52 ± 0.0112
x1 = 0.678	0.506 ± 0.011
x1 = 0.69	0.491 ± 0.0108
x1 = 0.703	0.476 ± 0.0105
x1 = 0.716	0.459 ± 0.01
x1 = 0.73	0.441 ± 0.0098
x1 = 0.744	0.421 ± 0.00932
x1 = 0.759	0.401 ± 0.00908
x1 = 0.775	0.378 ± 0.0086
x1 = 0.791	0.354 ± 0.00813
x1 = 0.808	0.329 ± 0.00765
x1 = 0.825	0.301 ± 0.00717
x1 = 0.844	0.273 ± 0.00669
x1 = 0.863	0.241 ± 0.00621
x1 = 0.883	0.208 ± 0.0055
x1 = 0.904	0.171 ± 0.00502
x1 = 0.927	0.134 ± 0.00454
x1 = 0.95	0.0913 ± 0.00406
x1 = 0.974	0.048 ± 0.00382

CCCCCCCC[n+]1ccn(C)c1.F[B-](F)(F)F [1-methyl-3-octylimidazolium tetrafluoroborate] + CCCCCO
Conditions	excess molar enthalpy [kcal/mol]
x1 = 0.213	0.35 ± 0.00813
x1 = 0.218	0.358 ± 0.00813
x1 = 0.223	0.365 ± 0.00837
x1 = 0.229	0.373 ± 0.00837
x1 = 0.234	0.38 ± 0.0086
x1 = 0.24	0.388 ± 0.0086
x1 = 0.244	0.393 ± 0.0086
x1 = 0.249	0.398 ± 0.00884
x1 = 0.254	0.404 ± 0.00884
x1 = 0.259	0.41 ± 0.00908
x1 = 0.264	0.416 ± 0.00932
x1 = 0.269	0.423 ± 0.00932
x1 = 0.275	0.429 ± 0.00932
x1 = 0.281	0.435 ± 0.00956
x1 = 0.287	0.443 ± 0.0098
x1 = 0.293	0.45 ± 0.0098
x1 = 0.3	0.457 ± 0.01
x1 = 0.306	0.464 ± 0.01
x1 = 0.314	0.472 ± 0.0103
x1 = 0.321	0.481 ± 0.0105
x1 = 0.329	0.49 ± 0.0108
x1 = 0.338	0.5 ± 0.011
x1 = 0.346	0.51 ± 0.011
x1 = 0.356	0.52 ± 0.0112
x1 = 0.365	0.53 ± 0.0115
x1 = 0.372	0.537 ± 0.0117
x1 = 0.378	0.544 ± 0.0117
x1 = 0.385	0.552 ± 0.012
x1 = 0.392	0.559 ± 0.0122
x1 = 0.4	0.567 ± 0.0122
x1 = 0.407	0.574 ± 0.0124
x1 = 0.415	0.581 ± 0.0124
x1 = 0.424	0.588 ± 0.0127
x1 = 0.432	0.595 ± 0.0127
x1 = 0.441	0.6 ± 0.0129
x1 = 0.451	0.604 ± 0.0129
x1 = 0.46	0.607 ± 0.0129
x1 = 0.471	0.608 ± 0.0129
x1 = 0.481	0.606 ± 0.0129
x1 = 0.492	0.604 ± 0.0129
x1 = 0.504	0.601 ± 0.0129
x1 = 0.516	0.597 ± 0.0127
x1 = 0.529	0.592 ± 0.0127
x1 = 0.542	0.586 ± 0.0124
x1 = 0.557	0.578 ± 0.0124
x1 = 0.572	0.568 ± 0.0122
x1 = 0.587	0.558 ± 0.012
x1 = 0.604	0.546 ± 0.0117
x1 = 0.622	0.532 ± 0.0115
x1 = 0.64	0.516 ± 0.0112
x1 = 0.648	0.508 ± 0.011
x1 = 0.656	0.501 ± 0.0108
x1 = 0.664	0.492 ± 0.0108
x1 = 0.673	0.484 ± 0.0105
x1 = 0.681	0.475 ± 0.0103
x1 = 0.69	0.465 ± 0.0103
x1 = 0.699	0.455 ± 0.01
x1 = 0.708	0.444 ± 0.0098
x1 = 0.718	0.433 ± 0.00956
x1 = 0.728	0.421 ± 0.00932
x1 = 0.738	0.408 ± 0.00908
x1 = 0.748	0.396 ± 0.00884
x1 = 0.759	0.382 ± 0.0086
x1 = 0.77	0.367 ± 0.00837
x1 = 0.781	0.352 ± 0.00813
x1 = 0.792	0.336 ± 0.00765
x1 = 0.804	0.319 ± 0.00741
x1 = 0.817	0.301 ± 0.00717
x1 = 0.829	0.283 ± 0.00669
x1 = 0.842	0.263 ± 0.00645
x1 = 0.856	0.242 ± 0.00598
x1 = 0.87	0.22 ± 0.00574
x1 = 0.884	0.197 ± 0.00526
x1 = 0.899	0.173 ± 0.00502
x1 = 0.914	0.148 ± 0.00454
x1 = 0.93	0.12 ± 0.0043
x1 = 0.947	0.0927 ± 0.00406
x1 = 0.964	0.0626 ± 0.00382
x1 = 0.982	0.032 ± 0.00359
